# Experimental data published in patent publication US8906678B2, “Use of markers of undifferentiated pluripotent stem cell” (Agency for Science, Technology and Research, priority 2010, dated 2014).
# Where two headings read alike, the source gives them in different places. Bridge positions count the residues as written; N and C are the ends. Square brackets hold non-standard residues; d marks the D form. Peptide text beside a SMILES is read from it.
# Tests used:
# Type in all cases: cell-based, human
# HES-3 cells = conditions: for killing efficiency on hESC, D-form vs L-form: 100 μm, after 120 hr; for relative viability: 100 μM
# Protocol: Viability was determined using Propidium Iodide (PI) assay, where cells were trypsinized and resuspended in binding buffer (10 mM HEPES/NaOH, 140 mM NaCl and 2.5 mM CaCl2) containing 1.25 mg/ml of PI. The cells were incubated at room temperature for 15 min before analyzing on the flow cytometer.
# ESIMR90 = system: ESIMR90
# Protocol: Induced pluripotent stem cell line, ESIMR90, derived from lung fibroblasts, was obtained from James Thomson (18). ESIMR90 was cultured as per hESC cultures, with the exception of supplementing cultures with 100 ng/ml of FGF-2. For FGF-2 starved cultures, cells were maintained without FGF-2 as mentioned above. Viability was determined using Propidium Iodide (PI) assay, where cells were trypsinized and resuspended in binding buffer (10 mM HEPES/NaOH, 140 mM NaCl and 2.5 mM CaCl2) containing 1.25 mg/ml of PI. The cells were incubated at room temperature for 15 min before analyzing on the flow cytometer.
# ESIMR90 cells = assay: Detection of caspase-3 activity / annexin V, ESIMR90; conditions: 100 μM peptide, 24 hours
# Protocol: (§1) To detect caspase-3 activity in treated hESC, cells grown in 24 wells were incubated with 5 μM of NucView 488 Caspase-3 substrate (Biotium Inc, www.biotium.com) and sulforhodamine 101-annexin V (1.25 ug/ml; Biotium Inc) at room temperature for 30 min. Cells were then washed once with PBS and examined under the Olympus IX70 fluorescence microscope (Olympus, http://www.olvmousamerica.com). For flow cytometry analysis, hESC was trypinsized before resuspending cells in PBS containing caspase-3 substrate and annexin V reagents.
# HES-3 = assay: Growth curve of HES-3 cultures (viable cell number vs time)
# Protocol: Human embryonic stem cell line, HES-3, was obtained from ES Cell International (ESI, Singapore, http://escellinternational.com). The cells were cultured at 37° C., 5% CO2, on matrigel-coated culture dishes supplemented with conditioned media from immortalized mouse embryonic fibroblast, ΔE-MEF. The media used for culturing hESC was Knockout (KO) media containing 85% KO-DMEM (DMEM, Dulbecco's modified Eagle's medium) supplemented with 15% KO serum replacer, 1 mM L-glutamine, 1% non-essential amino acids, 0.1 mM 2-mercaptoethanol, and 10 ng/ml basic fibroblast growth factor (FGF-2; Invitrogen, Carlsbad, Calif., http://www.invitrogen.com). The cells were treated with collagenase IV (200 U/ml) or TrypLE Express solution (Invitrogen) and dissociated into small clumps or single cells respectively by repeated pipetting. The cells were then reseeded onto matrigel-coated plates at a passage ratio 1:4.
# (§2) HES-3 and IMR-90 cells were cultured in 24 wells culture dishes supplemented with either 100 μM PHB-targeting pro-apoptotic peptide (CKGGRAKDC-GG-D(KLAKLAK)2 (SEQ ID NO:3)>90% purity; Sigma Aldrich) or 0.2% DMSO as control. Cultures were induced every 48 h and harvested daily for cell count. Cell numbers were determined using NucleoCounter according to the manufacturer's recommendations (Chemometec, Denmark, http://http://www.chemometec.com). The growth curves were generated by plotting viable cell number vs time. Specific growth rate, μ, was calculated as the gradient of the exponential phase, determined by plotting ln(cell number) vs time. Triplicates were done for each set of data.
# hESC [1] = assay: Detection of caspase-3 activity / annexin V, hESC; conditions: 100 μM peptide, 24 hours
# Protocol: as §1
# hESC [2] = assay: TUNEL assay (nuclear DNA fragmentation); conditions: after 48 hours
# Protocol: Nuclear DNA fragmentation was measured via a TUNEL (Terminal deoxynucleotidyl transferase dUTP nick end labeling) assay kit (Promega, Madison, Wis., http://www.promega.com). Cells were harvested from each condition and fixed in 1% paraformaldehyde for 20 min on ice before permeabilizing them with ice-cold 70% ethanol at […] overnight. Subsequently, the cells were washed with PBS and incubated in 80 μl of equilibration buffer for 5 min at room temperature. The cells were pelleted down and resuspended in 50 μl of incubation buffer containing nucleotides and rTdT enzyme, followed by incubation at 37° C. for 1 h. The reaction was quenched using 20 mM EDTA and cells were resuspended in 0.1% Triton/0.5% BSA/PBS before analyzing on the flow cytometer. The green fluorescence of fluorescein-12-dUTP was detected in the FL1 channel.
# IMR-90 cells = assay: Growth curve of IMR-90 cells (specificity control)
# Protocol: Human fetal lung fibroblast cell line, IMR-90 (CCL-186), was purchased from American Type Culture Collection and cultured according to the supplier's instructions.
# as §2
# [3] = system: PHB surface expression in HES-3; assay: SU5402 effect on PHB surface expression, flow cytometry, HES-3; conditions: 20 μM or 30 μM SU5402 for 7 days
# Protocol: Cells were harvested as single cell suspensions using trypsin, resuspended at 2×10^5 cells per 10 μl volume in 1% bovine serum albumin (BSA)/PBS and incubated for 45 min with each mAb clone (100 ul culture supernatant) or monoclonal TRA-1-60 antibody. (12.5 ug/ml; Chemicon, Temecula, Calif. http://www.chemicon.com). Cells were then washed with cold 1% BSA/PBS, and further incubated for 15 min with 1:500 dilution of fluorescein isothiocyanate (FITC)-conjugated goat α-mouse antibody (DAKO, Glostrup, Denmark, http://www.dako.com). After incubation, the cells were again washed and resuspended in 1% BSA/PBS for analysis on a FACScan (Becton, Dickinson and Company, Franklin Lakes, N.J., http://www.bd.com).
# To observe the effect of SU5402 on expression of PHB in hESC, cells were seeded and allowed to adhere for 24 h before culturing them in the presence of SU5402 at concentrations of 20 μM or 30 μM for 7 days. Control cells were cultured similarly in the presence of the vehicle control, DMSO instead. Cells were subsequently harvested for flow cytometry analysis.
# [4] = system: MAPK pathway (ERK phosphorylation) in HES-3 cultures; assay: SU5402 inhibitor study, ERK phosphorylation by western blot; conditions: 20 μM and 30 μM SU5402 for 2 h, then 10 ng/ml FGF-2 for 15 min
# Protocol: hESC cultured under various conditions were lysed and clarified via centrifugation before quantifying with the DC protein assay (Biorad, http://www.bio-rad.com). 20 ug of total protein from each condition was resolved and transferred onto membrane as described above. The resolved proteins were then immunoblotted with anti-actin (1:10,000; Abcam, http://www.abcam.com), anti-total ERK (1:1000; Sigma Aldrich) and anti-phospho-ERK (1:5000; Sigma Aldrich) antibodies. The protein bands were visualized using either ECL Plus detection reagent (Amersham, GE Healthcare, UK, http://www.gehealthcare.com) or LI-COR ODYSSY imaging system (LI-COR Biosciences, Nebraska, http://www.licor.com).
# Efficacy of SU5402 (Calbiochem, San Diego, USA, http://www.emdbiosciences.com) was determined by culturing hESC in absence of FGF-2 for 5 days, followed by incubating with 20 μM or 30 μM of SU5402 for 2 h before inducing the treated cultures with FGF-2 for 15 min. Cells were then lysed and the lysates were analyzed using western blot analysis.
# [5] = 100 μM of peptide, clump cultures
smiles,measurement,setting,value
CC(C)C[C@H](NC(=O)[C@H](CCCCN)NC(=O)CNC(=O)CNC(=O)[C@H](CS)NC(=O)[C@H](CC(=O)O)NC(=O)[C@H](CCCCN)NC(=O)[C@H](C)NC(=O)[C@H](CCCNC(=N)N)NC(=O)CNC(=O)CNC(=O)[C@H](CCCCN)NC(=O)[C@@H](N)CS)C(=O)N[C@@H](C)C(=O)N[C@@H](CCCCN)C(=O)N[C@@H](CC(C)C)C(=O)N[C@@H](C)C(=O)N[C@@H](CCCCN)C(=O)N[C@@H](CCCCN)C(=O)N[C@@H](CC(C)C)C(=O)N[C@@H](C)C(=O)N[C@@H](CCCCN)C(=O)N[C@@H](CC(C)C)C(=O)N[C@@H](C)C(=O)N[C@@H](CCCCN)C(=O)O [L-form peptide] (H-CKGGRAKDCGGKLAKLAKKLAKLAK-OH; N-terminus and C-terminus assumed),"killing efficiency on hESC, D-form vs L-form",HES-3 cells,comparable
same,hESC viability,"HES-3 cells; human, 120 hr",< 5%
"CC(C)C[C@@H](NC(=O)[C@@H](CCCCN)NC(=O)CNC(=O)CNC(=O)[C@@H]1CSSC[C@H](N)C(=O)N[C@@H](CCCCN)C(=O)NCC(=O)NCC(=O)N[C@@H](CCCNC(=N)N)C(=O)N[C@@H](C)C(=O)N[C@@H](CCCCN)C(=O)N[C@@H](CC(=O)O)C(=O)N1)C(=O)N[C@H](C)C(=O)N[C@H](CCCCN)C(=O)N[C@H](CC(C)C)C(=O)N[C@H](C)C(=O)N[C@H](CCCCN)C(=O)N[C@H](CCCCN)C(=O)N[C@H](CC(C)C)C(=O)N[C@H](C)C(=O)N[C@H](CCCCN)C(=O)N[C@H](CC(C)C)C(=O)N[C@H](C)C(=O)N[C@H](CCCCN)C(=O)O [peptide, CKGGRAKDC-GG-D(KLAKLAK)2] (H-CKGGRAKDCGG[dK][dL][dA][dK][dL][dA][dK][dK][dL][dA][dK][dL][dA][dK]-OH; disulfide 1-9; N-terminus and C-terminus assumed)",time of incubation to cell death via apoptosis,ESIMR90; IPSCs,≤ 48 h
same,relative viability,"ESIMR90; human, 72 h",33.4%
same,population exhibiting elevated caspase-3 activity,ESIMR90 cells; flow cytometry,66.3%
same,caspase-3 substrate and Annexin V staining,ESIMR90 cells; fluorescence microscopy,exhibited caspase-3 activity and phosphatidylserine (PS) externalization
same,initiation of death phase,HES-3; [5],70 h
same,td,HES-3; [5],61.3 h
same,specific growth rate,"HES-3; 100 μM of peptide, clump cultures, over 7 days",0.0113 h⁻¹
same,growth compared to the control,HES-3; peptide supplemented to TrypLE passaged cultures,minimal growth
same,population exhibiting elevated caspase-3 activity,hESC [1]; flow cytometry,71.1%
same,caspase-3 substrate and Annexin V staining,hESC [1]; fluorescence microscopy,exhibited caspase-3 activity and phosphatidylserine (PS) externalization
same,"killing efficiency on hESC, D-form vs L-form",HES-3 cells,comparable
same,toxic effect on hESC,HES-3 cells; concentrations less than 100 μM,minimal
same,time of incubation to cell death via apoptosis,HES-3 cells; hESC,≤ 48 h
same,relative viability,"HES-3 cells; human, 24 h",84.7%
same,relative viability,"HES-3 cells; human, 72 h",52.2%
same,relative viability,"HES-3 cells; human, 120 h",21.7%
same,viability,"HES-3 cells; human, 120 hr, 150 µM",< 10%
same,viability,"HES-3 cells; human, 120 hr, 200 µM",< 10%
same,"apoptotic killing effect, dose dependence",HES-3 cells; titrated over 20 μM to 200 μM,concentration-dependent
same,DNA fragmentation compared to the control,hESC [2],significant increase in DNA fragmentation
same,growth rate μ,IMR-90 cells; 100 μM of peptide,0.0167 h⁻¹
same,cell killing effect,"IMR-90 cells; IMR-90 cells, which do not express PHB on membrane",minimal cell killing effect
Cc1c[nH]c(/C=C2\C(=O)Nc3ccccc32)c1CCC(=O)O [SU5402],surface expression of PHB,[3],down-regulated surface expression of PHB
same,ERK phosphorylation,[4],suppression of ERK phosphorylation
